Results from patent US20260374739A1, “SMALL MOLECULAR WEIGHT CHEMICAL COMPOUND TO ANTAGONIZE EPH-EPHRIN TETRAMERIZATION AND INHIBIT BIDIRECTIONAL SIGNALING” (THE BOARD OF REGENTS OF THE UNIVERSITY OF TEXAS SYSTEM, priority 2022, published 2026).
Several values for one entry are separate records, joined by “and”; a condition that tells them apart may be missing. Identical values can stand only once. Like-named read-outs stand apart in the source and are kept apart here.

Tests used:
EphB1-EphrinB2 (EB2) = molecular target: T1, EphB1-EphrinB2 (EB2) (Rattus norvegicus, UniProt P09759); experiment: Alpha assay EphB1-EphrinB2 (EB2) interaction; format: binding, mouse EB2
T1 construct: rat EphB1-Fc residues 18-538; mouse EB2-His residues 18-232; purchased R&D Systems (EphB1-Fc); Sino Biologicals (EB2-His)
T1 sequence (P09759 18-538): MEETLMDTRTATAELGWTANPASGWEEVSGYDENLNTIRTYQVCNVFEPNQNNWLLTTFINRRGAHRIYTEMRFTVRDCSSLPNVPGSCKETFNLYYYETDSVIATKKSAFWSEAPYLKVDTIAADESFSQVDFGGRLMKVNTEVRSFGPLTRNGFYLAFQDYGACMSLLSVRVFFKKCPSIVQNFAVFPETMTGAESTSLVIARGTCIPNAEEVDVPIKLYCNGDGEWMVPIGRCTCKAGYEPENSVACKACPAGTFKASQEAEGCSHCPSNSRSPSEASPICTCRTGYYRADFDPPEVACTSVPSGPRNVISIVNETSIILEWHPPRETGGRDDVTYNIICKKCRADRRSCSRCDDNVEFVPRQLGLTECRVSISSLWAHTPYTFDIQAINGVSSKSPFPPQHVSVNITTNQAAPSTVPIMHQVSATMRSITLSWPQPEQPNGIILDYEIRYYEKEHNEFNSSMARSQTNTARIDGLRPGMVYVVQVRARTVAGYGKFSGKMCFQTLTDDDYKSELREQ
Source text: A chemiluminescent AlphaScreen™ bead-based proximity assay suitable for HTS was developed to measure the receptor-ligand interaction formed between EphB1 and EphrinB2 (EB2) ectodomains (FIG. 3). Here, when singlet oxygen molecules generated by high energy irradiation of donor beads travel over a constrained distance to excite acceptor beads, a chemiluminescent signal is generated and detected. If an analyte interferes with the EphB1-EB2 protein-protein interaction, close proximity of the donor and acceptor beads will be disrupted resulting in diminished or lost energy transfer and reduced acceptor bead emission.
Test was conducted in the Alpha assay, to see if purified soluble Reelin (previously shown to bind EphB1 ectodomain) can interfere with EphB1-EB2 binding.
The EphB1-EB2 screen was conducted using 0.8 nM of each protein, 50 ng beads per well, and assessed at 5 μM a library of −240,000 small, drug-like chemicals. […] They were also tested in a counter screen designed to identify non-specific compounds. Here, a single-protein Alpha assay was set up using a dual-tagged EphB2-His-Fc ectodomain protein that can bind both donor and acceptor beads to bring them into proximity. If a selected compound simply absorbs the chemiluminescent signal or interferes with bead function/binding or protein folding, it was hypothesized that it would also reduce signals in the single protein assay, and would consider it a false positive.

EphA3-EphrinA1 = molecular target: T2, EphA3-EphrinA1 (Homo sapiens, UniProt P29320); experiment: Octet, immobilized human EphA3 binding to human EphrinA1; conditions: for IC50: immobilized human EphA3, 50 nM soluble human EphrinA1
T2 sequence (P29320 21-541 limits assumed): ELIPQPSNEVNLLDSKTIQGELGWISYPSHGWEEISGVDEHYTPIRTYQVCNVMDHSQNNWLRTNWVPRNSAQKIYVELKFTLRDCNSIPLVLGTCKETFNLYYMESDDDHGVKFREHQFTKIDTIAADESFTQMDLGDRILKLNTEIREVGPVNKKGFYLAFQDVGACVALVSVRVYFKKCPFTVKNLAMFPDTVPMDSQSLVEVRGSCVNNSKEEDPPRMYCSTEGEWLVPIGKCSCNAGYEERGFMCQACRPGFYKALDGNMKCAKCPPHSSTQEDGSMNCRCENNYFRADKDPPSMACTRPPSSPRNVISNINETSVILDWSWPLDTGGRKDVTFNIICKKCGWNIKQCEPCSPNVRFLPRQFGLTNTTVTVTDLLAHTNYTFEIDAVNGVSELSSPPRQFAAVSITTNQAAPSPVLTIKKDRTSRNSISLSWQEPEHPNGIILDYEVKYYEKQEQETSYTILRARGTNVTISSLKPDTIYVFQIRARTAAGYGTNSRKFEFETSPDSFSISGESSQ
Description: (§1) The Octet system was used to probe the interactions of epitope-tagged human A class proteins, focusing on immobilized EphA3 binding to two of its cognate ligands, EphrinA1 and EphrinA5, as well as EphB2 binding to EphrinA5 (FIG. 27). […] Focusing on the dimerization-driven EphA3-EA5 interaction first (green sensorgram trace), which mimics what is disclosed above for EphB4-EB2, the initial binding of soluble EphrinA5 to the immobilized EphA3 is very fast and strong with a long and steep 84° slope of response that then quickly bends around 35 sec into the association step to form a more gradual tetramerization accumulation slope. […] However, again like the EphB4-EB2 interaction, once placed into dissociation, a significant fraction of the bound EA5 protein melts quickly and the off phase continues downward with a slow gradual decline in bound protein. Although the dissociation was for only 500 sec, the continued downward slope of the response indicates most of the bound EA5 protein would eventually melt off of the immobilized EphA3 protein. This is referred to as a classic dimerization-driven interaction, fast and strong initial binding in the association step but with most of the bound protein coming off in the dissociation due to lack of formation of stable tetramers. EphA3 interacts with EphrinA1 with totally different kinetics/dynamics (orange sensorgram trace). Here, the initial high 84° dimerization slope phase is extremely brief (5 sec) with the binding quickly snapping into a linear tetramerization accumulation phase with a 25° slope, and that once placed into dissociation step almost no bound protein melts, just the small amount that would represent dimer interactions falling off in the first few seconds after being placed into dissociation. […] EphB2 interacting with EA5 is similar to the EphA3-EA1 interaction, in that the association step is characterized by a very brief (5 sec) high 84° slope phase that quickly bends into a more gradual tetramer accumulation phase (blue sensorgram trace). […] The strong initial off phase of the EphB2-EA5 complexes in the dissociation represents both the melting of weak dimers and of the relatively weaker affinity tetramers formed by the cross A/B class EphB2-EA5 molecules.
(§2) While there is no effect of A20 on the initial 5 sec fast EphA3-EA1 dimer phase, there is a very strong effect of compound on tetramer accumulation. It was estimated that >70% of the EphA3-EA1 binding interaction can be attributed to the tetramer which is effectively disrupted by compound, with very little binding activity attributed to the dimer and more accurately the dimerization:tetramerization ratio of this interaction is 10:90 not 30:70. […] Since this is a dimerization-driven type interaction (dimerization:tetramerization ratio of here is 72:28), the overall effect of compound on this interaction is muted.

EphA3-EphrinA5 = molecular target: T3, EphA3-EphrinA5 (Homo sapiens, UniProt P29320); experiment: Octet, immobilized human EphA3 binding to human EphrinA5
T3 sequence (P29320 21-541 limits assumed): T2 sequence (P29320 21-541 limits assumed)
Description: as §1, §2

[1] = Absolute Association IC50, Human EphA3-EphrinA1, association, absolute
[2] = Human EphA3-EphrinA1, association, relative, read-out: Relative Association IC50
[3] = Human EphA3-EphrinA1, dissociation, relative, read-out: Relative Dissociation IC50
[4] = Human EphA3-EphrinA5, immobilized human EphA3, 50 nM soluble human EphrinA5, association, absolute, read-out: Absolute Association IC50
[5] = Human EphA3-EphrinA5, immobilized human EphA3, 50 nM soluble human EphrinA5, association, relative, read-out: Relative Association IC50
[6] = Human EphA3-EphrinA5, immobilized human EphA3, 50 nM soluble human EphrinA5, dissociation, relative, read-out: Relative Dissociation IC50
[7] = Human EphA3-EphrinA1, dissociation, absolute, read-out: Absolute Dissociation IC50
[8] = Relative Association IC50, Human EphA3-EphrinA1, association, relative
[9] = Human EphA3-EphrinA5, immobilized human EphA3, 50 nM soluble human EphrinA5, dissociation, absolute, read-out: Absolute Dissociation IC50
[10] = Human EphA3-EphrinA1, association, absolute, read-out: Absolute Association IC50
[11] = Relative Dissociation IC50, Human EphA3-EphrinA1, dissociation, relative

Structure (SMILES) | antagonism of EphB1-EB2 (EphB1-EphrinB2 (EB2)) | IC50 (EphA3-EphrinA5) [nM] | IC50 (EphA3-EphrinA5; [4]) [nM] | IC50 (EphA3-EphrinA5; [5]) [nM] | IC50 (EphA3-EphrinA1; [7]) | IC50 (EphA3-EphrinA5; [9]) [nM] | also measured
Oc1ccc(CN2CCN(c3ccc(Br)cc3)CC2)c2cccnc12 [Compound 26, 5-((4-(4-bromophenyl)piperazin-1-yl)methyl)quinolin-8-ol] | strong dose-dependent antagonist activity |  |  |  |  |  | 
O=[N+]([O-])c1cc(CN2CCOCC2)c2cccnc2c1O [Compound 10, 4-((8-hydroxy-7-nitroquinolin-1-ium-5-yl)methyl)morpholin-4-ium chloride] |  | 4480 | 100000 | 2490 |  |  | IC50 (EphA3-EphrinA1; [1]): 14000 nM; IC50 (EphA3-EphrinA1; Absolute Dissociation IC50, Human EphA3-EphrinA1, dissociation, absolute): 6300 nM; IC50 (EphA3-EphrinA1; [2]): 8300 nM; IC50 (EphA3-EphrinA1; [3]): 4230 nM; IC50 (EphA3-EphrinA5; [6]): 790 nM
Oc1c(CN2CCCCC2)cc(Cl)c2cccnc12 [Compound 76, 5-chloro-7-(piperidin-1-ylmethyl)quinolin-8-ol, reference compound] | did not exhibit any activity |  |  |  |  |  | 
Oc1c(Br)cc(CN2CCOCC2)c2cccnc12 [Compound 6, 4-((7-bromo-8-hydroxyquinolin-1-ium-5-yl)methyl)morpholin-4-ium chloride] |  | 370 | 100000 | 520 | 1990 nM | 520 | IC50 (EphA3-EphrinA1; [8]): 7240 nM
Oc1c(Cl)cc(CN2CCOCC2)c2cccnc12 [Compound 3, 7-chloro-5-(morpholinomethyl)quinolin-8-ol] | may be as effective as A20 at antagonizing EphB1-EB2 and EphB2-EB2 interactions |  |  |  |  |  | 
Oc1ccc(CN2CCCCC2)c2cccnc12 [Compound 68, 5-(piperidin-1-ylmethyl)quinolin-8-ol, reference compound] | did not exhibit any activity |  |  |  |  |  | 
Oc1c(Br)cc(CN2CCOCC2)c2cccnc12 [Compound 5, 7-bromo-5-(morpholinomethyl)quinolin-8-ol] |  |  |  |  |  |  | inhibition at 1 µM (EphA3-EphrinA1; 1 μM, read-out: tetramers lost): ~50%; loss of tetramer formation (EphA3-EphrinA1; 100 μM): near complete loss of tetramer formation; loss of tetramer accumulation (EphA3-EphrinA5; 1 μM): striking maximized loss of tetramer accumulation
Oc1c(I)cc(CN2CCOCC2)c2cccnc12 [Compound 8, 4-((8-hydroxy-7-iodoquinolin-1-ium-5-yl)methyl)morpholin-4-ium chloride] |  | 360 | > 1600 | 500 | 1200 nM and 1520 nM | 480 | IC50 (EphA3-EphrinA1; [10]): 450 nM and 1450 nM; IC50 (EphA3-EphrinA1; [2]): 190 nM and 710 nM; IC50 (EphA3-EphrinA1; [3]): 460 nM and 1140 nM
COc1ccccc1N1CCN(Cc2cc(Br)c(O)c3ncccc23)CC1 [Compound 70, 7-bromo-5-((4-(2-methoxyphenyl)piperazin-1-yl)methyl)quinolin-8-ol] | may be as effective as A20 at antagonizing EphB1-EB2 and EphB2-EB2 interactions |  |  |  |  |  | 
Oc1c(Cl)cc(CN2CCOCC2)c2cccnc12 [Compound 4, 4-((7-chloro-8-hydroxyquinolin-1-ium-5-yl)methyl)morpholin-4-ium chloride] |  | 540 | 12900 | 1000 | 900 nM | 620 | IC50 (EphA3-EphrinA1; [1]): 1840 nM; IC50 (EphA3-EphrinA1; [3]): 900 nM; IC50 (EphA3-EphrinA1; [8]): 890 nM
Oc1ccc(CN2CCN(Cc3ccc(C(F)(F)F)cc3)CC2)c2cccnc12 [Compound 48, 5-((4-(4-(trifluoromethyl)benzyl)piperazin-1-yl)methyl)quinolin-8-ol] |  | 4330 | 100000 | 3250 | 9400 nM | 6240 | IC50 (EphA3-EphrinA1; [10]): 100000 nM; IC50 (EphA3-EphrinA1; [2]): 100000 nM; IC50 (EphA3-EphrinA1; [11]): 5300 nM
O=S1(=O)CCN(Cc2ccc(O)c3ncccc23)CC1 [Compound 15, 4-((8-hydroxyquinolin-1-ium-5-yl)methyl)thiomorpholin-4-ium 1,1-dioxide chloride] |  | 2100 | 100000 | > 1000 | 29300 nM |  | IC50 (EphA3-EphrinA1; [10]): 100000 nM; IC50 (EphA3-EphrinA1; [8]): 12300 nM; IC50 (EphA3-EphrinA1; [11]): 6000 nM; IC50 (EphA3-EphrinA5; [6]): < 1000 nM
Oc1ccc(CN2CCN(c3ccc(F)cc3F)CC2)c2cccnc12 [Compound 62, 5-((4-(2,4-difluorophenyl)piperazin-1-yl)methyl)quinolin-8-ol] | some inhibitory activity though it was not apparent until higher concentrations |  |  |  |  |  | 
